From patent US20250206773A1, “FORMS AND COMPOSITIONS OF SODIUM CHENODEOXYCHOLATE” (Syntis Bio, Inc., priority 2022, published 2025)
Read-outs that look alike come from different tables or passages of the source.

Columns and labels:
[1] = assay type: physicochemical; details: pH 7.4
Procedure: Solubility curve measurements of NaCDC Form A and Form B were performed using a Crystal16 automatic crystallizer (Technobis Crystallization Systems), having an array of 16 microreactors equipped with turbidimeters for the determination of clear and cloud points. Samples of four different concentrations for each crystalline form were prepared by weighing accurately different amounts of each sample and adding 1000 μL of phosphate buffer (pH 7.4) to each vial. The suspensions thus obtained were stirred using a magnetic stirrer and heated from 0° C. to 90° C. at 0.5° C./min. The clear point for each sample was determined and plotted to obtain a crystallization curve (FIG. 13).

[2] = Dynamic vapor sorption (DVS) hygroscopicity; assay type: physicochemical; details: 25° C.
Procedure: DVS measurements were performed with a SMS—DVS Intrinsic. The sample size was about 50 mg, accurately weighed. The measurement was performed at 25° C., the relative humidity (RH) range investigated was 40-90-0-90% RH with 10% RH steps. After each RH change, the mass of the sample was allowed to stabilize (waiting time 10 to 60 minutes, stabilization criterion ≤0.002 g for 10 minutes). The hygroscopicity of the sample was calculated as follows: [formula] • where: • W1: weight of sample at the start of the experiment (25° C. and 40% RH) • W2: weight of sample at 25° C. and 80% RH in the first sorption cycle High Pressure Liquid Chromatography (HPLC)

[3] = Polymorph screening: slurry (XRPD, HPLC of recovered solids); assay type: physicochemical; details: slurry 7 days
Procedure: Around 15 mg of NaCDC Form B was weighted into HPLC vials, and the appropriate volume of solvent was added at RT. Slurries were aged for 7 days under stirring (500 rpm), at multiple temperatures: 5° C., 25-30° C., 40° C., and 50° C. All solids were air-dried on filter paper and then analyzed by XRPD. Depending on the results obtained by XRPD and material availability, some experiments were analyzed by HTPLC and TG/DSC.

[4] = Intrinsic dissolution, USP rotating disk apparatus; assay type: physicochemical
Procedure: For the intrinsic dissolution studies, the following HPLC method was used: [table] Intrinsic dissolution profiles of NaCDC Form A and Form B were determined from a drug disk of constant surface area using a USP rotating disk apparatus in phosphate buffer (pH 7.4) at 37° C. […] A typical apparatus consisted of a punch and a die, whose base is attached to a surface plate. […] The punch was then inserted in the die cavity and the test material was compressed with a hydraulic press. A non-disintegrating compact of the material was formed in the die cavity with a single face of defined area exposed on the bottom of the die. The die assembly was then attached to a shaft with a holder and the surface plate was removed. The shaft holding the die assembly was positioned into the dissolution medium at a distance not less than 1.0 cm from the bottom of the vessel. In this procedure, fluid flow was generated by the rotation of the die. The amount of material dissolved was measured as a function of time. In particular, the cumulative amount dissolved at each time point was corrected for losses due to sampling. […] Method parameters are summarized below: [table]

[5] = Exposure to moist air (RH 95%, room temperature), XRPD before/after; assay type: physicochemical
Procedure: FIG. 4 is a series of XRPD patterns, showing NaCDC Form A before (thick line) and after (thin line) 15 hours of exposure to RH 95% at room temperature. FIG. 8 is a series of XRPD patterns, showing NaCDC Form B before (thick line) and after (thin line) 15 hours of exposure to RH 95% at room temperature.

[6] = assay type: physicochemical; details: RT
Procedure: HPLC analysis was carried out on an Agilent 1260 Infinity chromatograph, using a Hichrom C18 column 100×4.6 mm, 3.5 m, at 40° C. Method details were as follows: [table] Photostability of NaCDC Form B was evaluated by exposing it in solid state and in MeOH solutions to UV 254 nm light for 48 hours in clear, amber, and aluminum foil wrapped vials. The solutions were prepared by weighing around 10 mg NaCDC Form B and mixing it with 500 μL MeOH. The solids and solutions were sampled after 48 hours and analyzed by HPLC, in order to assess degradation. In parallel, XRPD analysis was performed on the recovered solids.

[7] = SL70, Methyl ethyl ketone (MEK), 50° C.

Q: For C[C@H](CCC(=O)[O-])[C@H]1CC[C@H]2[C@@H]3[C@H](O)C[C@@H]4C[C@H](O)CC[C@]4(C)[C@H]3CC[C@]12C.[Na+] [Form B, sodium chenodeoxycholate], which “solubility compared to NaCDC Form A (solubility curve)” value [1] is on record?
A: slightly higher solubility

Q: What about the “hygroscopicity by DVS” value [2] of the same molecule?
A: slightly hygroscopic

Q: What about the “weight change in the first sorption cycle (DVS)” value ([2]; 40% RH to 80% RH) of the same molecule?
A: 0.8%

Q: And the “HPLC purity (%) at 212 nm” value ([3]; SL01, Ethanol (EtOH), 5° C.)?
A: 89.70%

Q: And the XRPD ([3]; SL05, Methylcyclohexane, 5° C.)?
A: SM, P.O.

Q: And the XRPD ([3]; SL06, n-Heptane, 5° C.)?
A: SM, l.c.

Q: What about the “HPLC purity (%) at 212 nm” value ([3]; SL13, tert-Butyl methyl ether, 5° C.) of the same molecule?
A: 87.21%

Q: And the XRPD ([3]; SL15, Tetrahydrofuran (THF), 5° C.)?
A: SM, l.c.

Q: What about the XRPD ([3]; SL19, Acetonitrile (MeCN), 5° C.) of the same molecule?
A: SM, l.c.

Q: And the “HPLC purity (%) at 212 nm” value ([3]; SL22, EtOH:MeCN (1:1 v/v), 5° C.)?
A: 91.93%

Q: And the “HPLC purity (%) at 212 nm” value ([3]; SL23, EtOH:n-Heptane (1:1 v/v), 5° C.)?
A: 93.64%

Q: And the “HPLC purity (%) at 212 nm” value ([3]; SL26, Ethanol (EtOH), 25-30° C.)?
A: 92.34%

Q: What about the “HPLC purity (%) at 212 nm” value ([3]; SL27, 2-Propanol (2-PrOH), 25-30° C.) of the same molecule?
A: 88.33%

Q: What about the XRPD ([3]; SL28, 2-Methyl-1-propanol (Isobutanol), 25-30° C.) of the same molecule?
A: l.c., SM

Q: What about the XRPD ([3]; SL29, 2-Butanol, 25-30° C.) of the same molecule?
A: SM, l.c.

Q: And the XRPD ([3]; SL31, Methylcyclohexane, 25-30° C., solvent almost evap./consumed on the 7th day)?
A: SM, l.c.

Q: What about the “HPLC purity (%) at 212 nm” value ([3]; SL39, tert-Butyl methyl ether, 25-30° C.) of the same molecule?
A: 84.05%

Q: And the XRPD ([3]; SL41, Tetrahydrofuran (THF), 25-30° C.)?
A: SM, l.c.

Q: What about the “HPLC purity (%) at 212 nm” value ([3]; SL48, EtOH:MeCN (1:1 v/v), 25-30° C.) of the same molecule?
A: 83.87%

Q: What about the “HPLC purity (%) at 212 nm” value ([3]; SL49, EtOH:n-Heptane (1:1 v/v), 25-30° C.) of the same molecule?
A: 93.06%

Q: What about the “HPLC purity (%) at 212 nm” value ([3]; SL52, Ethanol (EtOH), 40° C.) of the same molecule?
A: 87.98%

Q: And the “HPLC purity (%) at 212 nm” value ([3]; SL56, 2-Propanol (2-PrOH), 50° C.)?
A: 84.92%

Q: And the XRPD ([3]; SL60, n-Heptane, 50° C., solvent almost evap./consumed on 7th day)?
A: l.c., SM

Q: What about the “HPLC purity (%) at 212 nm” value ([3]; SL68, Tetrahydrofuran (THF), 50° C.) of the same molecule?
A: 78.16%

Q: What about the “HPLC purity (%) at 212 nm” value [3, 7] of the same molecule?
A: 90.88%

Q: What about the XRPD [3, 7] of the same molecule?
A: SM, h.c.

Q: What about the “HPLC purity (%) at 212 nm” value ([3]; SL74, EtOH:MeCN (1:1 v/v), 50° C.) of the same molecule?
A: 78.36%

Q: And the “HPLC purity (%) at 212 nm” value ([3]; SL75, EtOH:n-Heptane (1:1 v/v), 50° C.)?
A: 85.10%

Q: And the “solid form after compression (XRPD)” value ([4]; 2 tons for 2 minutes)?
A: no change in solid form

Q: What about the “IDR (intrinsic dissolution rate)” value ([4]; USP phosphate buffer pH 7.4, 37° C., 100 rpm, disk 0.5024 cm^2) of the same molecule?
A: 0.9218 mg · min^−1 · cm^−2

Q: And the “effect of exposure to moist air (XRPD)” value ([5]; 15-20 hours at 95% humidity)?
A: eventual amorphization

Q: What about the “loss of crystallinity on moist air exposure compared with Form A” value ([5]; 95% humidity) of the same molecule?
A: markedly slower

Q: What about the “HPLC (%) at 212 nm, after 48h” value ([6]; ST01: UV 254 nm, solid, clear vial) of the same molecule?
A: 94.4%

Q: And the “HPLC (%) at 212 nm, after 48h” value ([6]; ST02: UV 254 nm, solid, amber vial)?
A: 95.0%

Q: And the “HPLC (%) at 212 nm, after 48h” value ([6]; ST03: UV 254 nm, solid, control - dark)?
A: 95.4%

Q: And the “HPLC (%) at 212 nm, after 48h” value ([6]; ST04: UV 254 nm, MeOH solution, clear vial)?
A: 91.4%

Q: And the “HPLC (%) at 212 nm, after 48h” value ([6]; ST05: UV 254 nm, MeOH solution, amber vial)?
A: 91.0%

Q: And the “HPLC (%) at 212 nm, after 48h” value ([6]; ST06: UV 254 nm, MeOH solution, control - dark)?
A: 94.2%
